In patent publication US5310884A (Merck Frosst Canada, Inc., priority 1992, dated 1994):

Legend:
[1] = system: 45 kDa guinea-pig lung membrane protein; assay: Deglycosylation of the photoaffinity labelled 45 kDa guinea-pig lung membrane protein by N-Glycosidase F; type: biochemical; conditions: 1 μM LTD4
Protocol: FIG. 10. […] Following photolysis the guinea-pig lung membranes were recovered from 1 ml sample aliquots by centrifugation at 150,000×g for 15 min at 4° C. The membranes were then solubilized in 20 μl of incubation buffer (20 mM NaHPO4, pH 7.4, containing 10 mM EDTA and 1 % (v/v) 2-mercaptoethanol) containing 1 % (w/v) SDS. The solubilized preparation was then diluted with incubation buffer to a final volume of 200 μl containing 1 % (w/v) octylglucoside and 0-60 U / ml of recombinant N-Glycosidase F, and incubated overnight at room temperature. Samples were further diluted in 3-fold concentrated SDS sample buffer and analysed by SDS-PAGE, followed by autoradiography. […] The migration of the molecular weight standards is indicated on the left.
In every case the only detectable product was the 40 kDa protein. […] This is also supported by qualitative evidence since the radiolabelled precursor migrated as a diffuse band during SDS-PAGE, behaviour typical of glycoproteins, while the deglycosylated product migrated as a more focused band.

[2] = target: T1, LTD4 receptor (guinea-pig lung membranes) (Cavia porcellus, UniProt Q2NNR5); assay: Rates of association and dissociation of radioligand binding to guinea-pig lung membranes; set-up: Guinea pigs (male; from tissue; host or cells: guinea-pig lung (primarily parenchyma), sucrose-gradient membrane fraction
T1 sequence (Q2NNR5 1-340): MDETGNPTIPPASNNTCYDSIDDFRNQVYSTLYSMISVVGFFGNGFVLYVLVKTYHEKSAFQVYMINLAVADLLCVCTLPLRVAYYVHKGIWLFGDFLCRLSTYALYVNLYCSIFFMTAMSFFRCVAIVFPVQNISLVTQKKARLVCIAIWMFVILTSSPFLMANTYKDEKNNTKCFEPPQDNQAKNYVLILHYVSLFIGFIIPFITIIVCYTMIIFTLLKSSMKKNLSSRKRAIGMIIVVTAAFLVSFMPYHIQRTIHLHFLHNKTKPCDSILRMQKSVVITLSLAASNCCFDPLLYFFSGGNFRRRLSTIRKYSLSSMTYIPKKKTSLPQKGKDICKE
Protocol: FIG. 3. […] Aliquots (500 μl) were removed and filtered at the required time intervals.

[3] = target: T1, LTD4 receptor (guinea-pig lung membranes); conditions: 60 pM radioligand, 20-30 μg membrane protein
Protocol: Guinea pigs (male; 350 g) were sacrificed by cervical dislocation and the lung tissues removed. All subsequent procedures were performed either on ice or at 4° C. Connective tissue, trachea, large blood vessels and major airways were dissected away and the remaining lung tissue (primarily parenchyma) was finely minced prior to homogenisation in 10 vol of 10 mM HEPES/KOH pH 7.4, containing 0.25 M sucrose, 2 mM EDTA, 2 mM phenylmethylsulphonyl fluoride, 10 μg/ml pepstatin, 10 μg/ml leupeptin and 10 μM E-64, using 5 s bursts of a polytron (Brinkman Instruments). The homogenate was subjected to differential centrifugation at 1000×g for 10 min, 10,000×g for 10 min and 100,000×g for 40 min. The resulting 100,000×g pellets were resuspended in 10 mM HEPES/KOH pH 7.4, containing 10% (w/v) sucrose, at a final protein concentration of 1-2 mg/ml. This tissue suspension was carefully layered over 10 mM HEPES/KOH pH 7.4 containing 40% (w/v) sucrose in a 3:2 (v/v) ratio. The discontinuous sucrose gradient was centrifuged at 83,000×g for 60 min. The membrane fraction located at the interface of the sucrose gradient layers was recovered, diluted 10-fold in 10 mM HEPES/KOH pH 7.4 and further centrifuged at 150,000×g for 40 min. The final membrane pellets were resuspended in 10 mM HEPES/KOH pH 7.4 at a protein concentration of 2-4 mg/ml and stored at […].
Filters were then washed with 16 ml of 10 mM HEPES/KOH, pH 7.4 containing 0.01% (w/v) bovine serum albumin, at 4° C.
FIG. 4. […] Radiolabelled proteins were resolved by SDS-PAGE and visualized by autoradiography. […] In addition, photoaffinity labelled membranes were subjected to immunoprecipitation with RAGpAlb (Lane C) and non-immune rabbit serum (Lane D), as described in the Methods. The migration of molecular weight standards is indicated on the left. FIGS. 5(A)-5(C). […] Results are expressed as percentage of maximum specific binding as a function of CaCl2 concentration. […] Only the results for total binding are shown.
Results are expressed as percentage of maximum specific binding as a function of nucleotide concentration. […] Only the results for total binding are shown.
Results are expressed as percentage of maximum specific binding as a function of cation concentration. […] Only the results for total binding are shown.

[4] = system: 66.2 kDa protein (guinea-pig serum albumin); assay: Photoaffinity labelling of 66.2 kDa protein and immunoprecipitation with rabbit anti-guinea-pig albumin antisera; type: binding; conditions: lung membranes and guinea-pig serum
Protocol: Samples were incubated for 60 min at room temperature. Aliquots (2×500 μl) were then removed and the bound [^125 I]Azido-LTD4 quantified as described for the filtration binding assays. The residual samples were then transferred to 25 mm diameter cluster plate well for photolysis. The cluster plates were placed on aluminium blocks, pre-cooled to -20° C., and illuminated from above with a 40 W ultraviolet light source (Phillips, γmax =350 nm) at a distance of 10 cm for 2 min. The guinea-pig lung membranes were then recovered from 1 ml sample aliquots by centrifugation at 150,000×g for 15 min at 4° C. and solubilized in sodium dodecyl sulphate polyacrylamide gel electrophoresis (SDS-PAGE) sample buffer prior to resolution of the proteins by SDS-PAGE (Laemmli, 1970). Protein bands were visualized by Coomassie Blue staining while radiolabelled proteins were identified by autoradiography of dried gels and quantified by laser densitometry (Molecular Dynamics, ImageQuant).
The TXIP solubilized samples were centrifuged at 14,000×g for 15 min at 4° C. and the supernatant mixed directly with 50 μl of non-immune rabbit serum or RAGpAlb premixed for 15 min at 4° C. with 80 μl of protein A-Sepharose (50 mg/ml in TXIP). […] The final immunocomplex was dissociated by resuspension in SDS-PAGE sample buffer for 5 min at 95° C. and analysed by SDS-PAGE and autoradiography of the dried gels. […]

[5] = target: T1, LTD4 receptor (guinea-pig lung membranes); assay: Saturation binding to guinea-pig lung membranes, Scatchard plot analysis; set-up: Guinea pigs (male; 350 g) were sacrificed by cervical dislocation and the lung tissues removed; from tissue; host or cells: guinea-pig lung (primarily parenchyma), sucrose-gradient membrane fraction
[6] = RP-HPLC stability of [125I]Azido-LTD4 under binding assay conditions with guinea-pig lung membrane; type: in vitro ADME; conditions: 60 min
Protocol: RP-HPLC was conducted to assess the stability of [^125 I]Azido-LTD4 under binding assay conditions. […] Following a 60 min incubation at room temperature, samples were centrifuged at 150,000×g for 15 min at 4° C. The supernatant (unbound radioligand) was removed and the membrane pellet was resuspended by sonication in 150 μl of RP-HPLC solvent ([…] (v/v) MeOH:H2O:HOAc containing 0.01% 2-mercaptoethanol and 0.5 mM EDTA). The samples were centrifuged at 150,000×g for 15 min at 4° C. and the supernatent removed (bound radioligand). Bound and unbound radioligand fractions (100 μl) were analysed by RP-HPLC using a Nova Pac C18 column (0.39 ×15 cm; Waters Assoc.) eluted isocratically at a flow rate of 1 ml/min with RP-HPLC solvent. The profile of iodinated material from bound and unbound radioligand samples was determined by on-line solid scintillation gamma counting (Berthold HPLC radioactivity monitor LB 506 C1). [^125 I]Azido-LTD4 was identified by […] of non-radioactive [^127 I]Azido-LTD4 monitored by optical density at 280 nm.
FIGS. 2(A) and 2(B) RP-HPLC analysis of [^125 I]Azido-LTD4 stability. RP-HPLC was used to assess the stability of [^125 I]Azido-LDT4 under the conditions routinely employed for binding assays as described in the Methods.

Row | presence of radiolabelled precursor and product after pretreatment with LTD4 [1] | dissociation of binding by 1 μM LTD4 ([2]; 1 μM LTD4, additional 50 min incubation) | association: time to reach equilibrium ([2]; guinea-pig lung membranes) [min] | fraction of added radioligand bound to guinea-pig lung membranes [3] | radiolabelling of 66.2 kDa protein (selectivity) [4] | maximum number of binding sites (Bmax) ([5]; Scatchard, single site) [fmol/mg protein] | Kd ([5]; read-out: equilibrium dissociation constant (KD)) [pM] | stability of radioligand ([6]; room temperature, lung membrane, pH 7.4) | recovery of radioactive material following RP-HPLC ([6]; bound and unbound fractions after incubation with lung membrane, 60 pM) | SMILES | dissociation of binding by 1 μM LTD4 with 10 μM GTPγS ([2]; to non-specific levels)
1 | not present |  |  |  |  |  |  |  |  | CCCCC/C=C\C\C=C/C=C/C=C/[C@@H](SC[C@H](N)C(=O)NCC(=O)O)[C@@H](O)CCCC(=O)O [LTD4] | 
2 |  | approximately 50% | 60 | 10-20% | non-selectively labelled | 1000 | 200 | completely stable | approximately 100% | CCCCC/C=C\C\C=C/C=C/C=C/[C@@H](SC[C@H](NC(=O)CCCCCNC(=O)c1cc([125I])c(N=[N+]=[N-])cc1O)C(=O)NCC(=O)O)[C@@H](O)CCCC(=O)O [[^125 I]Azido-LTD4] | almost instantaneous and complete dissociation
